Reference: patent publication US12428406B2 (PMV Pharmaceuticals, Inc., priority 2019, dated 2025)

What follows are molecules tested against T1, p53 Y220C (Homo sapiens, UniProt P04637, Y220C) (assay: In vitro DNA binding activity assay (HTRF / TR-FRET): stabilization of p53 Y220C and increase of its DNA binding activity). Conditions: recombinant His-tagged p53 Y220C DNA binding domain (aa 94-312), biotin-labeled consensus DNA, incubated at 27° C. or 29° C. for 60 min.
T1 construct: The recombinant protein was a truncation mutant containing only amino acids 94-312 of p53; made in house; host or cells: E. coli
T1 sequence (P04637 94-312, change not shown): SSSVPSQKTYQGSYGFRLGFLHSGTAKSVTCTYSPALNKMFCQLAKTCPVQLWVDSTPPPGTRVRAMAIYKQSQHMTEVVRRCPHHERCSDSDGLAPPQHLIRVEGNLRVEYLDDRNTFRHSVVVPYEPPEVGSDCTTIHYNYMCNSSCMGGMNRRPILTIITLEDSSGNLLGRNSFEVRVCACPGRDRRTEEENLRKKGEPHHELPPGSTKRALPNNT
Type: biochemical
Outline: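 E. coli His-p53 Y220C + biotin consensus DNA; anti-His-APC/SA-Eu TR-FRET. SC150 vs no-compound.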

SMILES | SC150 (concentration of the compound required to increase the DNA binding activity by 50%)
CNC(=O)c1ccc(NCC#Cc2cc3c(N[C@@H]4CCN(C)C[C@@H]4F)cccc3n2CC(F)(F)F)c(O)c1 [Compound 1058A, 4-{[3-(4-{[(3S,4R)-3-fluoro-1-methylpiperidin-4-yl]amino}-1-(2,2,2-trifluoroethyl)-1H-indol-2-yl)prop-2-yn-1-yl]amino}-3-hydroxy-N-methylbenzamide] | + (+ = 0 μM ≤ SC150 < 0.05 μM)
CNS(=O)(=O)c1ccc(NCC#Cc2cc3c(NC4CCN(CCOC)CC4)cccc3n2CC(F)(F)F)c(OC)c1 [Compound 617A, 3-methoxy-4-{[3-(4-{[1-(2-methoxyethyl)piperidin-4-yl]amino}-1-(2,2,2-trifluoroethyl)-1H-indol-2-yl)prop-2-yn-1-yl]amino}-N-methylbenzene-1-sulfonamide] | + (+ = 0 μM ≤ SC150 < 0.05 μM)
CCOc1cc(S(C)(=O)=O)ccc1NCC#Cc1cc2c(N[C@@H]3CCN(C)C[C@@H]3F)cccc2n1CC(F)(F)F [Compound 843A] | + (+ = 0 μM ≤ SC150 < 0.05 μM)
COc1cc(S(N)(=O)=O)ccc1NCC#Cc1cc2c(N[C@@H]3CCN(C[C@H](COC(C)=O)OC(C)=O)C[C@@H]3F)cccc2n1CC(F)(F)F (racemic) [Compound 799A, (2R)-1-(acetyloxy)-3-[(3RS,4SR)-3-fluoro-4-[(2-{3-[(2-methoxy-4-sulfamoylphenyl)amino]prop-1-yn-1-yl}-1-(2,2,2-trifluoroethyl)-1H-indol-4-yl)amino]piperidin-1-yl]propan-2-yl acetate] | + (+ = 0 μM ≤ SC150 < 0.05 μM)
CNC(=O)c1ccc(NCC#Cc2cc3c(N[C@H]4CC[C@H](N5CC(S(C)(=O)=O)C5)CC4)cccc3n2CC(F)(F)F)c(OC)c1 [Compound 192A, 3-methoxy-N-methyl-4-{[3-(4-{[(1R,4R)-4-(3-methanesulfonyl-azetidin-1-yl)cyclo-hexyl]amino}-1-(2,2,2-trifluoroethyl)-1H-indol-2-yl)prop-2-yn-1-yl]amino}benzamide] | + (+ = 0 μM ≤ SC150 < 0.05 μM)
COC[C@@H](CN1CCC(Nc2cccc3c2cc(C#CCNc2ccc(S(C)(=O)=O)cc2OC)n3CC(F)(F)F)CC1)OC(=O)C(C)C [Compound 635A, (2R)-1-{4-[(2-{3-[(4-methanesulfonyl-2-methoxyphenyl)amino]prop-1-yn-1-yl}-1-(2,2,2-trifluoroethyl)-1H-indol-4-yl)amino]piperidin-1-yl}-3-methoxypropan-2-yl 2-methylpropanoate] | + (+ = 0 μM ≤ SC150 < 0.05 μM)
CCNC(=O)c1ccc(NCC#Cc2cc3c(N[C@H]4CC[C@H](N(C)C)CC4)cccc3n2CC(F)(F)F)c(OC)c1 [Compound 101A, N-ethyl-3-methoxy-4-{[3-(4-{[(1R,4R)-4-(dimethylamino)cyclo-hexyl]amino}-1-(2,2,2-trifluoroethyl)-1H-indol-2-yl)prop-2-yn-1-yl]amino}benzamide] | + (+ = 0 μM ≤ SC150 < 0.05 μM)
COc1cc(S(=O)(=O)N(C)CCO)ccc1NCC#Cc1cc2c(NC3CCOCC3)cccc2n1CC(F)(F)F [Compound 996A, N-(2-hydroxyethyl)-3-methoxy-N-methyl-4-[(3-{4-[(oxan-4-yl)amino]-1-(2,2,2-trifluoroethyl)-1H-indol-2-yl}prop-2-yn-1-yl)amino]benzene-1-sulfonamide] | + (+ = 0 μM ≤ SC150 < 0.05 μM)
COc1cc(S(C)(=O)=O)ccc1NCC#Cc1cc2c(NC3CCN(CCOC(C)=O)CC3)cccc2n1CC(F)(F)F [Compound 565A, 2-{4-[(2-{3-[(4-methanesulfonyl-2-methoxyphenyl)amino]prop-1-yn-1-yl}-1-(2,2,2-trifluoroethyl)-1H-indol-4-yl)amino]piperidin-1-yl}EtOAc] | + (+ = 0 μM ≤ SC150 < 0.05 μM)
COc1cc(S(N)(=O)=O)ccc1NCC#Cc1cc2c(N[C@H]3CC[C@H](N4CC5CC(C4)O5)CC3)cccc2n1CC(F)(F)F [Compound 400A, 3-methoxy-4-{[3-(4-{[(1R,4R)-4-{6-oxa-3-azabicyclo[3.1.1]heptan-3-yl}cyclohexyl]amino}-1-(2,2,2-trifluoroethyl)-1H-indol-2-yl)prop-2-yn-1-yl]amino}benzene-1-sulfonamide] | + (+ = 0 μM ≤ SC150 < 0.05 μM)
CCN1CCC(Nc2cccc3c2cc(C#CCNc2ccc(S(C)(=O)=O)cc2OCF)n3CC(F)(F)F)CC1 [Compound 534A, N-(1-ethylpiperidin-4-yl)-2-(3-{[2-(fluoromethoxy)-4-methanesulfonylphenyl]amino}prop-1-yn-1-yl)-1-(2,2,2-trifluoroethyl)-1H-indol-4-amine] | + (+ = 0 μM ≤ SC150 < 0.05 μM)
CS(=O)(=O)c1ccc(NCC#Cc2cc3c(NC4CCC(N5CC6(COC6)C5)CC4)cccc3n2CC(F)(F)F)c(OCF)c1 [Compound 257A, 2-(3-{[2-(fluoro-methoxy)-4-methane-sulfonylphenyl]amino}prop-1-yn-1-yl)-N-[(1R,4R)-4-{2-oxa-6-azaspiro[3.3]heptan-6-yl}cyclo-hexyl]-1-(2,2,2-trifluoroethyl)-1H-indol-4-amine] | + (+ = 0 μM ≤ SC150 < 0.05 μM)
COC(=O)CC[C@H](NC(=O)c1ccc(NCC#Cc2cc3c(N[C@@H]4CCN(C)C[C@@H]4F)cccc3n2CC(F)(F)F)c(OC)c1)C(=O)OC [Compound 932A, 1,5-dimethyl (2S)-2-[(4-{[3-(4-{[(3S,4R)-3-fluoro-1-methylpiperidin-4-yl]amino}-1-(2,2,2-trifluoroethyl)-1H-indol-2-yl)prop-2-yn-1-yl]amino}-3-methoxyphenyl)formamido]pentanedioate] | + (+ = 0 μM ≤ SC150 < 0.05 μM)
COc1cc(S(N)(=O)=O)ccc1NCC#Cc1cc2c(N[C@H]3CC[C@H](N4CC5(CCC5)C4)CC3)cccc2n1CC(F)(F)F [Compound 198A, 3-methoxy-4-{[3-(4-{[(1R,4R)-4-{2-azaspiro[3.3]heptan-2-yl}cyclohexyl]amino}-1-(2,2,2-trifluoroethyl)-1H-indol-2-yl)prop-2-yn-1-yl]amino}benzene-1-sulfonamide] | + (+ = 0 μM ≤ SC150 < 0.05 μM)
COc1cc(S(N)(=O)=O)ccc1NCC#Cc1cc2c(N[C@H]3CC[C@H](N4CC5(COC5)C4)CC3)cccc2n1CC(F)(F)F [Compound 205A, 3-methoxy-4-{[3-(4-{[(1S,4S)-4-{2-oxa-6-azaspiro[3.3]heptan-6-yl}cyclohexyl]amino}-1-(2,2,2-trifluoroethyl)-1H-indol-2-yl)prop-2-yn-1-yl]amino}benzene-1-sulfonamide] | + (+ = 0 μM ≤ SC150 < 0.05 μM)
COc1cc(C(=O)O)ccc1NCC#Cc1cc2c(N[C@@H]3CCN(CCO)C[C@@H]3F)cccc2n1CC(F)(F)F [Compound 908A, 4-{[3-(4-{[(3S,4R)-3-fluoro-1-(2-hydroxyethyl)piperidin-4-yl]amino}-1-(2,2,2-trifluoroethyl)-1H-indol-2-yl)prop-2-yn-1-yl]amino}-3-methoxybenzoic acid] | + (+ = 0 μM ≤ SC150 < 0.05 μM)
CCC(=O)OC(C)CN1CCC(Nc2cccc3c2cc(C#CCNc2ccc(S(C)(=O)=O)cc2OC)n3CC(F)(F)F)CC1 (racemic) [Compound 590A, 1-{4-[(2-{3-[(4-methanesulfonyl-2-methoxyphenyl)amino]prop-1-yn-1-yl}-1-(2,2,2-trifluoroethyl)-1H-indol-4-yl)amino]piperidin-1-yl}propan-2-yl propanoate] | + (+ = 0 μM ≤ SC150 < 0.05 μM)
COc1cc(S(C)(=O)=O)ccc1NCC#Cc1cc2c(NC3CCN(CC(C)OC(C)=O)CC3)cccc2n1CC(F)(F)F (stereo not drawn) [Compound 567A, 1-{4-[(2-{3-[(4-methanesulfonyl-2-methoxyphenyl)amino]prop-1-yn-1-yl}-1-(2,2,2-trifluoroethyl)-1H-indol-4-yl)amino]piperidin-1-yl}propan-2-yl acetate] | + (+ = 0 μM ≤ SC150 < 0.05 μM)
COCC(O)CN1CCC(Nc2cccc3c2cc(C#CCNc2ccc(S(C)(=O)=O)cc2OC)n3CC2CC2(F)F)CC1 (stereo not drawn) [Compound 704A, 1-[4-({1-[(2,2-difluorocyclopropyl)methyl]-2-{3-[(4-methanesulfonyl-2-methoxyphenyl)amino]prop-1-yn-1-yl}-1H-indol-4-yl}amino)piperidin-1-yl]-3-methoxypropan-2-ol] | ++ (++ = 0.05 μM ≤ SC150 < 0.1 μM)
CNC(=O)c1ccc(NCC#Cc2cc3c(N[C@H]4CC[C@](C)(O)CC4)cccc3n2CC(F)(F)F)c(OC)c1 [Compound 31A, 3-methoxy-N-methyl-4-{[3-(4-{[(1R,4R)-4-hydroxy-4-methylcyclohexyl]amino}-1-(2,2,2-trifluoroethyl)-1H-indol-2-yl)prop-2-yn-1-yl]amino}benzamide] | + (+ = 0 μM ≤ SC150 < 0.05 μM)
CCN1CC[C@H](Nc2cccc3c2cc(C#CCNc2ccc(C(=O)NC)cc2OC)n3CC(F)(F)F)[C@H](F)C1 [Compound 1075A, 4-{[3-(4-{[(3R,4S)-1-ethyl-3-fluoropiperidin-4-yl]amino}-1-(2,2,2-trifluoroethyl)-1H-indol-2-yl)prop-2-yn-1-yl]amino}-3-methoxy-N-methvlbenzamide] | + (+ = 0 μM ≤ SC150 < 0.05 μM)
